Measurements: ChEMBL document CHEMBL3046686, “Isoxazole derivatives as a potential insecticide for managing Callosobruchus chinensis” (2010)
Values after ≈ are worked out from the molar mass of the structure shown.

Experiments:
Callosobruchus chinensis [1] = assay: Insecticidal activity against Callosobruchus chinensis assessed as mortality at 1000 mg/l at 27 +/- 1 degC and 70% RH; assay type: functional
Callosobruchus chinensis [2] = assay: Insecticidal activity against Callosobruchus chinensis assessed as mortality at 27 +/- 1 degC and 70% RH; assay type: functional

For Clc1ccc(-c2cc(-c3ccc(Cl)cc3)on2)cc1, the mortality at 1000 µg/mL (Callosobruchus chinensis [1]) was 90% and the LC50 (Callosobruchus chinensis [2]) was 134 µg/mL (≈ 462 µM).
Molecule Fc1ccc(-c2cc(-c3ccc(Cl)cc3)on2)cc1 has a mortality at 1000 µg/mL (Callosobruchus chinensis [1]) of 59%.
Clc1ccc(-c2cc(-c3ccccc3)on2)cc1 gave a mortality at 1000 µg/mL (Callosobruchus chinensis [1]) of 65%.
Work on Fc1ccc(-c2cc(-c3ccccc3)on2)cc1 yielded a mortality at 1000 µg/mL (Callosobruchus chinensis [1]) of 86% and an LC50 (Callosobruchus chinensis [2]) of 254 µg/mL (≈ 1060 µM).
For COc1ccc(-c2cc(-c3ccccc3)no2)cc1, the mortality at 1000 µg/mL (Callosobruchus chinensis [1]) was 66%.
Work on COc1ccc(-c2cc(-c3ccccc3Cl)no2)cc1 yielded a mortality at 1000 µg/mL (Callosobruchus chinensis [1]) of 86% and an LC50 (Callosobruchus chinensis [2]) of 110 µg/mL (≈ 385 µM).
Molecule COc1ccc(-c2cc(-c3ccc(C)cc3)on2)cc1 has a mortality at 1000 µg/mL (Callosobruchus chinensis [1]) of 84% and an LC50 (Callosobruchus chinensis [2]) of 93 µg/mL (≈ 351 µM).
For Cc1ccc(-c2cc(-c3ccc(Cl)cc3)no2)cc1, the mortality at 1000 µg/mL (Callosobruchus chinensis [1]) was 63%.
With COP(=O)(OC)OC=C(Cl)Cl [DICHLORVOS] the LC50 (Callosobruchus chinensis [2]) was 155 µg/mL (≈ 701 µM).
Molecule COc1ccc(-c2cc(-c3ccc(F)cc3)no2)cc1 has a mortality at 1000 µg/mL (Callosobruchus chinensis [1]) of 88% and an LC50 (Callosobruchus chinensis [2]) of 289 µg/mL (≈ 1070 µM).
In the case of COc1ccc(-c2cc(-c3ccc(OC)cc3)on2)cc1, the mortality at 1000 µg/mL (Callosobruchus chinensis [1]) is reported as 89% and the LC50 (Callosobruchus chinensis [2]) is reported as 296 µg/mL (≈ 1050 µM).
With Cc1ccc(-c2cc(-c3ccccc3)no2)cc1 the mortality at 1000 µg/mL (Callosobruchus chinensis [1]) was 65%.
For Clc1ccc(-c2cc(-c3ccccc3)no2)cc1, the mortality at 1000 µg/mL (Callosobruchus chinensis [1]) was 46%.
Molecule COc1ccc(-c2cc(-c3ccc(Cl)cc3)no2)cc1 has a mortality at 1000 µg/mL (Callosobruchus chinensis [1]) of 82% and an LC50 (Callosobruchus chinensis [2]) of 354 µg/mL (≈ 1240 µM).
Cc1ccc(-c2cc(-c3ccc(F)cc3)no2)cc1 gave a mortality at 1000 µg/mL (Callosobruchus chinensis [1]) of 67%.
Molecule Clc1ccccc1-c1cc(-c2ccccc2)on1 has a mortality at 1000 µg/mL (Callosobruchus chinensis [1]) of 78% and an LC50 (Callosobruchus chinensis [2]) of 36 µg/mL (≈ 141 µM).
COc1ccc(-c2cc(-c3ccccc3)on2)cc1 gave a mortality at 1000 µg/mL (Callosobruchus chinensis [1]) of 58%.
In the case of COc1ccc(-c2cc(-c3ccc(Cl)cc3)on2)cc1, the mortality at 1000 µg/mL (Callosobruchus chinensis [1]) is reported as 85% and the LC50 (Callosobruchus chinensis [2]) is reported as 330 µg/mL (≈ 1150 µM).
In the case of Clc1ccc(-c2cc(-c3ccccc3Cl)no2)cc1, the mortality at 1000 µg/mL (Callosobruchus chinensis [1]) is reported as 85% and the LC50 (Callosobruchus chinensis [2]) is reported as 338 µg/mL (≈ 1160 µM).
For Cc1ccc(-c2cc(-c3ccccc3Cl)no2)cc1, the mortality at 1000 µg/mL (Callosobruchus chinensis [1]) was 68%.
c1ccc(-c2cc(-c3ccccc3)on2)cc1 [3,5-DIPHENYLISOXAZOLE] was tested, and the mortality at 1000 µg/mL (Callosobruchus chinensis [1]) was 67%.
